Reference: PMC10239507, “Development of allosteric and selective CDK2 inhibitors for contraception with negative cooperativity to cyclin binding” (Nature Communications, 2023)

Tests used:
Test in all cases: biochemical
[1] = molecular target: T1, 371 kinases (kinase named in each endpoint) (Homo sapiens, UniProt Q99683); conditions: ASK1/MAP3K5
T1 construct: purchased Reaction Biology

[2] = molecular target: T2, 371 kinases (kinase named in each endpoint) (Homo sapiens, UniProt Q05513); conditions: PKCZETA
T2 construct: purchased Reaction Biology

[3] = molecular target: T3, 371 kinases (kinase named in each endpoint) (Homo sapiens, UniProt Q00534)
T3 construct: purchased Reaction Biology
T3 sequence (Q00534 whole entry): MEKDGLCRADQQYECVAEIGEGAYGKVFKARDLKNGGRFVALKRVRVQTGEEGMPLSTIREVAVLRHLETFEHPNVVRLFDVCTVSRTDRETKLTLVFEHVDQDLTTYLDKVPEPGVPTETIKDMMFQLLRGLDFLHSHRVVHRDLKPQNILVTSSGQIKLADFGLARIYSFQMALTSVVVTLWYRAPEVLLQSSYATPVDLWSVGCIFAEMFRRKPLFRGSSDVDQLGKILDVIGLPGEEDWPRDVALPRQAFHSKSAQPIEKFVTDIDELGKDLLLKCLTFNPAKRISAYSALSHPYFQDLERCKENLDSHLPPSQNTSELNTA

[4] = molecular target: T4, 371 kinases (kinase named in each endpoint) (Homo sapiens, UniProt O75116); conditions: ROCK2
T4 construct: purchased Reaction Biology

[5] = molecular target: T5, 371 kinases (kinase named in each endpoint) (Homo sapiens, UniProt O00311); conditions: CDC7/DBF4
T5 construct: purchased Reaction Biology

[6] = molecular target: T6, 371 kinases (kinase named in each endpoint) (Homo sapiens, UniProt P41743); conditions: PKCIOTA
T6 construct: purchased Reaction Biology
T6 sequence (P41743 whole entry): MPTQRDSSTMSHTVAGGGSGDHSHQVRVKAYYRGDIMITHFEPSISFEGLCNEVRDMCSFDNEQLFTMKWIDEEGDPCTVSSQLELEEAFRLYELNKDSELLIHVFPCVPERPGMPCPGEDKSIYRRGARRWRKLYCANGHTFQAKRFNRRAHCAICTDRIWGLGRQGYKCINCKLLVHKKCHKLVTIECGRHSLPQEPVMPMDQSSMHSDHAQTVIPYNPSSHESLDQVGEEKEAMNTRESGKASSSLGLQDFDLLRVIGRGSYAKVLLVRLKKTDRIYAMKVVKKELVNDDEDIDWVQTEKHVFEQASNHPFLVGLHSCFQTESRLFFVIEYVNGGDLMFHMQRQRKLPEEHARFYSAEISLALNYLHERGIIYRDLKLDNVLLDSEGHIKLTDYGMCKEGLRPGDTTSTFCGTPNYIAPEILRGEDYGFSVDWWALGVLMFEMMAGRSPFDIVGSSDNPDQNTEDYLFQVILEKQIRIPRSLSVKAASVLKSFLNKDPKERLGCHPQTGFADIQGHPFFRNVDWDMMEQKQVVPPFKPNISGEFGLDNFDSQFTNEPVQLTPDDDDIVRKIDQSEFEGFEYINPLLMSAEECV

[7] = molecular target: T7, 371 kinases (kinase named in each endpoint) (Homo sapiens, UniProt Q15139); conditions: PKCMU/PRKD1
T7 construct: purchased Reaction Biology
T7 sequence (Q15139 whole entry): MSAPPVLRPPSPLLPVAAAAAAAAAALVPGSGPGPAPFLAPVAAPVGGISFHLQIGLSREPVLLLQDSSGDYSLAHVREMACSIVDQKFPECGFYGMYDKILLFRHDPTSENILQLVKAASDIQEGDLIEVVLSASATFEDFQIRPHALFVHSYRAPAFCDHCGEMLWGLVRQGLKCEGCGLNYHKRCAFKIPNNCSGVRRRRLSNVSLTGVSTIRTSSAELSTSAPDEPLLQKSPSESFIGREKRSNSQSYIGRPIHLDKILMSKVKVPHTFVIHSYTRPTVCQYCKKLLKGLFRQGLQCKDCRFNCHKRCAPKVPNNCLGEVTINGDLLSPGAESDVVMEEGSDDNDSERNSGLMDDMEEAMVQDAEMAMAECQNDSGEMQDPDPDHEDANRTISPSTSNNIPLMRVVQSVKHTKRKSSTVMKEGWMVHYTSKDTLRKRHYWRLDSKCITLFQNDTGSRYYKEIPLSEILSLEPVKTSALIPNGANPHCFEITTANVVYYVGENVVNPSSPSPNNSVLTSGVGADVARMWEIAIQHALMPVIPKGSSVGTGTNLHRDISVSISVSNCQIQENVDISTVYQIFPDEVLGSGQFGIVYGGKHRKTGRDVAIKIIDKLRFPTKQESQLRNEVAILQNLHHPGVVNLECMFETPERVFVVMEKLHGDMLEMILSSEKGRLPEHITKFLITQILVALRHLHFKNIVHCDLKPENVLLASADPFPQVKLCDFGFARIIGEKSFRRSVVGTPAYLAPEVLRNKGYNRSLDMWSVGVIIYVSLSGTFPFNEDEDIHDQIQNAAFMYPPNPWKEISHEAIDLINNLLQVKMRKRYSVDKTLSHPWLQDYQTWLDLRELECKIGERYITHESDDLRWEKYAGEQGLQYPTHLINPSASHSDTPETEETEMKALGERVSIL

[8] = molecular target: T8, 371 kinases (kinase named in each endpoint) (Homo sapiens, UniProt Q9NR20); conditions: DYRK4
T8 construct: purchased Reaction Biology

[9] = molecular target: T9, 371 kinases (kinase named in each endpoint) (Homo sapiens, UniProt Q99986); conditions: VRK1
T9 construct: purchased Reaction Biology

[10] = molecular target: T10, 371 kinases (kinase named in each endpoint) (Homo sapiens, UniProt Q6P2M8); conditions: CAMK1B
T10 construct: purchased Reaction Biology

[11] = molecular target: T11, 371 kinases (kinase named in each endpoint) (Homo sapiens, UniProt Q9P0L2); conditions: MARK1
T11 construct: purchased Reaction Biology
T11 sequence (Q9P0L2 whole entry): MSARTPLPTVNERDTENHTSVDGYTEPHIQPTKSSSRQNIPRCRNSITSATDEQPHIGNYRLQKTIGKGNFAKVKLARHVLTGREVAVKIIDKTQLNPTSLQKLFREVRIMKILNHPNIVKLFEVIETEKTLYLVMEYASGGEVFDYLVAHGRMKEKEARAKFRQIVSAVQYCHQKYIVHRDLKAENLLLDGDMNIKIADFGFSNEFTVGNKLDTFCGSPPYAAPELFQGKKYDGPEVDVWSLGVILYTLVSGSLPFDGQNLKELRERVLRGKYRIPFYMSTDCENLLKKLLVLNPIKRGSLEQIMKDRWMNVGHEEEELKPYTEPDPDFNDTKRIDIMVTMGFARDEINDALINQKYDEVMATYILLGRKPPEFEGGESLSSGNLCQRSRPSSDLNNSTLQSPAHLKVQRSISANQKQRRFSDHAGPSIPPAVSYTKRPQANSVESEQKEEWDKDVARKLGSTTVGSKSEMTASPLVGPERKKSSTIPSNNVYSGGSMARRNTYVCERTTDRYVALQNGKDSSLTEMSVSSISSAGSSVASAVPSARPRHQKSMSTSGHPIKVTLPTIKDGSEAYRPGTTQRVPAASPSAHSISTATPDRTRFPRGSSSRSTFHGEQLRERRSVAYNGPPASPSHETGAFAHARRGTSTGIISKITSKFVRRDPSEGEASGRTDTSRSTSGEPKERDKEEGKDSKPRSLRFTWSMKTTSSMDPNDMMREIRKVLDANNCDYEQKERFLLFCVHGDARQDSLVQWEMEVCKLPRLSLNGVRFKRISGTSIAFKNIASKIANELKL

[12] = molecular target: T12, 371 kinases (kinase named in each endpoint) (Homo sapiens, UniProt Q16539); conditions: P38A/MAPK14
T12 construct: purchased Reaction Biology

[13] = molecular target: T13, 371 kinases (kinase named in each endpoint) (Homo sapiens, UniProt P31749); conditions: AKT1
T13 construct: purchased Reaction Biology

[14] = molecular target: T14, 371 kinases (kinase named in each endpoint) (Homo sapiens, UniProt P06213); conditions: IR
T14 construct: purchased Reaction Biology

[15] = molecular target: T15, 371 kinases (kinase named in each endpoint) (Homo sapiens, UniProt P22694); conditions: PKACB
T15 construct: purchased Reaction Biology

[16] = molecular target: T16, 371 kinases (kinase named in each endpoint) (Homo sapiens, UniProt O94806); conditions: PKCNU/PRKD3
T16 construct: purchased Reaction Biology

[17] = molecular target: T17, 371 kinases (kinase named in each endpoint) (Homo sapiens, UniProt P51617); conditions: IRAK1
T17 construct: purchased Reaction Biology

[18] = molecular target: T18, 371 kinases (kinase named in each endpoint) (Homo sapiens, UniProt Q96GD4); conditions: AURORA B
T18 construct: purchased Reaction Biology

[19] = molecular target: T19, 371 kinases (kinase named in each endpoint) (Homo sapiens, UniProt Q05655); conditions: PKCD
T19 construct: purchased Reaction Biology

[20] = molecular target: T20, 371 kinases (kinase named in each endpoint) (Homo sapiens, UniProt P16234); conditions: PDGFRA
T20 construct: purchased Reaction Biology

[21] = molecular target: T21, 371 kinases (kinase named in each endpoint) (Homo sapiens, UniProt O15146); conditions: MUSK
T21 construct: purchased Reaction Biology

[22] = molecular target: T22, 371 kinases (kinase named in each endpoint) (Homo sapiens, UniProt Q96KB5); conditions: PBK/TOPK
T22 construct: purchased Reaction Biology

[23] = molecular target: T23, 371 kinases (kinase named in each endpoint) (Homo sapiens, UniProt P50613); conditions: CDK7/CYCLIN H
T23 construct: purchased Reaction Biology
T23 sequence (P50613 whole entry): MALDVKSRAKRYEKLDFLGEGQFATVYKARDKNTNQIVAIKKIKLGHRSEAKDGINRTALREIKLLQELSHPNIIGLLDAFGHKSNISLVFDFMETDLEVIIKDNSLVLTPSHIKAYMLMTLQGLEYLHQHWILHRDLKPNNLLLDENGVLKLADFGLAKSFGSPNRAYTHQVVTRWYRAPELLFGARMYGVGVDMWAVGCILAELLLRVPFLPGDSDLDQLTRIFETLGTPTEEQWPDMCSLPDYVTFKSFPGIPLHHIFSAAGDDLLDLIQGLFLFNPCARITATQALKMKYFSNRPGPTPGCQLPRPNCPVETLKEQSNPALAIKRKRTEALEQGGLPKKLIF

[24] = molecular target: T24, 371 kinases (kinase named in each endpoint) (Homo sapiens, UniProt P35626); conditions: GRK3
T24 construct: purchased Reaction Biology

[25] = molecular target: T25, 371 kinases (kinase named in each endpoint) (Homo sapiens, UniProt Q96SB4); conditions: SRPK1
T25 construct: purchased Reaction Biology

[26] = molecular target: T26, 371 kinases (kinase named in each endpoint) (Homo sapiens, UniProt Q5TCY1); conditions: TTBK1
T26 construct: purchased Reaction Biology

[27] = molecular target: T27, 371 kinases (kinase named in each endpoint) (Homo sapiens, UniProt Q9NRM7); conditions: LATS2
T27 construct: purchased Reaction Biology
T27 sequence (Q9NRM7 whole entry): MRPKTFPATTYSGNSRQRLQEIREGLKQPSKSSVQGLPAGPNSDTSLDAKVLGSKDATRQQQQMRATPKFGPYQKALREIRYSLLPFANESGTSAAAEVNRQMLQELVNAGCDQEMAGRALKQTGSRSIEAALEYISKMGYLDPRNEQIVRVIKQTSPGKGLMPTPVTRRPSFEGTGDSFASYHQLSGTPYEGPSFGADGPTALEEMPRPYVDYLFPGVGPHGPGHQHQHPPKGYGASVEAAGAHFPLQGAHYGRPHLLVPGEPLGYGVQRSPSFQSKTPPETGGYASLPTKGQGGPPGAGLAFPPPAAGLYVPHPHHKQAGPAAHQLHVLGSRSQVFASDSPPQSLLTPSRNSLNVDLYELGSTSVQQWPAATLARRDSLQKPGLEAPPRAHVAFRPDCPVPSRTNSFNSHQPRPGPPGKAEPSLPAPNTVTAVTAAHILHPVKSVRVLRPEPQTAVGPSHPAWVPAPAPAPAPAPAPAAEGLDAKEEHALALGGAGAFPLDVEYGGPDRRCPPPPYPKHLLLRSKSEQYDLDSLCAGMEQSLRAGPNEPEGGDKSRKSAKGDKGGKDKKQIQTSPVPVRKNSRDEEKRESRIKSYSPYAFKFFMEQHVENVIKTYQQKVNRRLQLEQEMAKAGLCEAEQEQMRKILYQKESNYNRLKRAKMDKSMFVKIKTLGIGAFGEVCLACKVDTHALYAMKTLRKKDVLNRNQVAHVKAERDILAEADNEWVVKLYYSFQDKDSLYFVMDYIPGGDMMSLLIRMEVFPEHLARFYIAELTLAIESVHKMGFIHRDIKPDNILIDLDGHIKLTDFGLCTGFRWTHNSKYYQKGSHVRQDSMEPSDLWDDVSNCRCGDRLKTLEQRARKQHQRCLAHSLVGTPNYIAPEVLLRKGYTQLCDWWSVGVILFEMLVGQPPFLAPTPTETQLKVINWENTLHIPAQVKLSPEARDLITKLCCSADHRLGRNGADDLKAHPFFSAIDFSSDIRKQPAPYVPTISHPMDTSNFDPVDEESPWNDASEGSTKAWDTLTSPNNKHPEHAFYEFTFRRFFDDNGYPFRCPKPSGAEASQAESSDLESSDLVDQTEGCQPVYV

[28] = molecular target: T28, 371 kinases (kinase named in each endpoint) (Homo sapiens, UniProt P43403); conditions: ZAP70
T28 construct: purchased Reaction Biology

[29] = molecular target: T29, 371 kinases (kinase named in each endpoint) (Homo sapiens, UniProt P52564); conditions: MKK6
T29 construct: purchased Reaction Biology
T29 sequence (P52564 whole entry): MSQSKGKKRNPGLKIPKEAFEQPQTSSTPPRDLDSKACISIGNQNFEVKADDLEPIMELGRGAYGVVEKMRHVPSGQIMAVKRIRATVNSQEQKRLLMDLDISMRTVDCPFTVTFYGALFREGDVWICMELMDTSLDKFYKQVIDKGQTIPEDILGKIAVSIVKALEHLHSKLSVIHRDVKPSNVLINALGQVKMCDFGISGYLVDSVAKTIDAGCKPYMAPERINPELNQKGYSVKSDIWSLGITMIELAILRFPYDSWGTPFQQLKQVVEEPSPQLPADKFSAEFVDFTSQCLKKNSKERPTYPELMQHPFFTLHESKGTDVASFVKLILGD

[30] = molecular target: T30, 371 kinases (kinase named in each endpoint) (Homo sapiens, UniProt O00444); conditions: PLK4/SAK
T30 construct: purchased Reaction Biology

[31] = molecular target: T31, 371 kinases (kinase named in each endpoint) (Homo sapiens, UniProt Q15208); conditions: STK38/NDR1
T31 construct: purchased Reaction Biology

[32] = molecular target: T32, 371 kinases (kinase named in each endpoint) (Homo sapiens, UniProt Q6DT37); conditions: DMPK2
T32 construct: purchased Reaction Biology

[33] = molecular target: T33, 371 kinases (kinase named in each endpoint) (Homo sapiens, UniProt P49759); conditions: CLK1
T33 construct: purchased Reaction Biology

[34] = molecular target: T34, 371 kinases (kinase named in each endpoint) (Homo sapiens, UniProt Q9NYL2); conditions: ZAK/MLTK
T34 construct: purchased Reaction Biology

[35] = molecular target: T35, 371 kinases (kinase named in each endpoint) (Homo sapiens, UniProt O43781); conditions: DYRK3
T35 construct: purchased Reaction Biology
T35 sequence (O43781 whole entry): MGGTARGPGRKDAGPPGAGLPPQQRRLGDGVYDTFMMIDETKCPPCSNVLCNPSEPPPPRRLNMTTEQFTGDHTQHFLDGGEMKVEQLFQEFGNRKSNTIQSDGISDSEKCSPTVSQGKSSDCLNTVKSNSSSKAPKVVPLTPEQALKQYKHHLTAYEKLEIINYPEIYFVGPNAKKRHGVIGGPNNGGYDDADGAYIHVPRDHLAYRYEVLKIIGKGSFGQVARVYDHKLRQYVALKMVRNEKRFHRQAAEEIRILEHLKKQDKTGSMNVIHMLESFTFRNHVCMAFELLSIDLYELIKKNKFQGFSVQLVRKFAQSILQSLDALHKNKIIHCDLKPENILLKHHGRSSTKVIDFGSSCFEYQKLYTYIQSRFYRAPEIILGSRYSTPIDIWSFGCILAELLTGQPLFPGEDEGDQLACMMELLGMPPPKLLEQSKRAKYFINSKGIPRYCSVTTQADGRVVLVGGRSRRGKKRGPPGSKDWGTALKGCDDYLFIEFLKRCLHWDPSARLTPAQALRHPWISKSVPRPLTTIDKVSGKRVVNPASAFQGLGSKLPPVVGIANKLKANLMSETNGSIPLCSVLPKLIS

[36] = molecular target: T36, 371 kinases (kinase named in each endpoint) (Homo sapiens, UniProt Q14012); conditions: CAMK1A
T36 construct: purchased Reaction Biology

`O=C(O)c1cc(C(F)(F)F)ccc1NCCc1c[nH]c2cc(Br)ccc12` [Compound 5, 2-((2-(6-Bromo-1H-indol-3-yl)ethyl)amino)−5-(trifluoromethyl)benzoic Acid] showed an activity at 10 µM [1] of 110 ± 2.8%, an activity at 10 µM [2] of 126.6 ± 0.3% and an activity at 10 µM ([3]; CDK6/CYCLIN D1) of 87.9 ± 0.1%. For the same molecule, the activity at 10 µM ([3]; CDK6/CYCLIN D2) was 44.6 ± 0.5%, the activity at 10 µM ([3]; CDK6/CYCLIN D3) was 60.9 ± 1.2% and the activity at 10 µM [4] was 90 ± 2%. It also gave an activity at 10 µM [5] of 77.9 ± 2.9%, an activity at 10 µM [6] of 96.8 ± 0.8% and an activity at 10 µM [7] of 115.9 ± 0.9%. For the same molecule, the activity at 10 µM [8] was 96.9 ± 2.5%, the activity at 10 µM [9] was 105 ± 1.5% and the activity at 10 µM [10] was 59.1 ± 0.7%. The activity at 10 µM [11] was 93.3 ± 0.5%, the activity at 10 µM [12] was 124.8 ± 0.6% and the activity at 10 µM [13] was 93.4 ± 0.2%. It also gave an activity at 10 µM [14] of 64.7 ± 1.1%, an activity at 10 µM [15] of 93.4 ± 0.4% and an activity at 10 µM [16] of 139 ± 7.1%. It also gave an activity at 10 µM [17] of 102 ± 2.5%, an activity at 10 µM [18] of 34.9 ± 0.5% and an activity at 10 µM [19] of 54.7 ± 2.7%. The activity at 10 µM [20] was 86.9 ± 0.2%, the activity at 10 µM [21] was 104.4 ± 1% and the activity at 10 µM [22] was 156 ± 1.8%. The activity at 10 µM [23] was 104 ± 3.6%, the activity at 10 µM [24] was 93.7 ± 1.2% and the activity at 10 µM [25] was 91.3 ± 0.5%. The activity at 10 µM [26] was 103 ± 3.1%, the activity at 10 µM [27] was 79.1 ± 1.6% and the activity at 10 µM [28] was 95.1 ± 1.6%. The activity at 10 µM [29] was 101 ± 0.2%, the activity at 10 µM [30] was 91.2 ± 1.2% and the activity at 10 µM [31] was 88 ± 0.7%. The activity at 10 µM [32] was 96.2 ± 1.7%, the activity at 10 µM [33] was 109.3 ± 0.4% and the activity at 10 µM [34] was 96.9 ± 0.2%. For the same molecule, the activity at 10 µM [35] was 57.3 ± 2.4% and the activity at 10 µM [36] was 69.1 ± 1%.
